Measured values published in a melting point compilation (Tetko et al.; mined from patent text by program, amines drawn as free bases though some values may be those of a salt).
Residues, ends and D or L forms follow the SMILES beside them. *: point of attachment. Boc = CC(C)(C)OC(=O)*; OBn = c1ccc(CO*)cc1

melting point | Compound
210 to 211 °C | Cc1cc(C)c(C)c(COc2cccc(-c3ccoc3C(=O)NNC(=O)c3ccc(O)c(C#N)c3)c2)c1C
162 to 164 °C | COc1ccc(Cl)cc1NC(=O)[C@H]1[C@H](c2ccc(Cl)cc2)C1(C)C (relative stereo)
> 250 °C | CCNC(=O)c1ccccc1Nc1nc(Nc2cc3c(cc2OC)CC(=O)NCC3)ncc1Cl
242 to 244 °C | CC(=O)NCC(C)(C)c1ccc(C(=O)Nc2cn3cc(-n4ccnc4)ccc3n2)cc1
48 to 50 °C | CCOC(=O)c1nc2ccccc2c(=O)n1C
212 to 216 °C | COc1nc(C)cc(C(=O)NS(=O)(=O)c2ccccc2[N+](=O)[O-])n1
98 to 100 °C | CCOC(=O)c1cc2c(C(F)(F)F)cc(OCC(=O)OC(C)(C)C)cc2n1C
140 to 142 °C | O=C(O)C(=O)CC(=O)c1ccc(C2CCCCC2)cc1
196 to 200 °C | O=C(NC(Cc1ccccc1)C(=O)O)c1cc(-c2ccc(OCc3ccccc3)cc2)[nH]n1 (centres undefined)
176 to 178 °C | O=C(O)CCCN1C(=O)c2ccc([N+](=O)[O-])cc2C1=O
112 to 114 °C | CCOC(=O)N1CCC(=C2c3cc(F)ccc3CCc3cccnc32)CC1
87 to 89 °C | CCCCCNC(=O)N(C)c1cccc(-c2ccc(C=C(C)C(=O)O)cc2OCCCC)c1
198 to 200 °C | COc1ccc(NS(=O)(=O)C(F)(F)F)cc1CC1C(=O)c2cc(OCc3nc4cc(F)c(F)cc4s3)ccc2OC1(C)C (centres undefined)
156 to 157 °C | CN(C)c1nc(N(C)Cc2ccccc2O)nc(N(C)Cc2ccccc2O)n1
> 210 °C | CC(C)(C)N(NC(=O)c1ccccc1)C(=O)c1ccncc1
108 °C | CN(CCn1ncc(-c2ccccc2)cc1=O)CC(O)c1ccc(NS(C)(=O)=O)cc1 (centres undefined)
165 °C | O=C1NC(=O)C(Nc2ccc(CCNC[C@H](O)COc3ccc(O)cc3)cc2)S1 (some centres undefined)
207 to 210 °C | COc1ccc(/C=C/C(=O)CC(=O)/C=C/c2ccc(O)cc2)cc1O
173 to 175 °C | Cc1nc2ccc(Cl)cc2c(-c2ccc(F)cc2)c1CO
275 to 280 °C | CN=C1C2=C(C=CC1CN(C)c1ccc(C(=O)OC)cc1)C(C)(C)CCC2(C)C (centres undefined)
127 to 128 °C | CCCc1c[nH]nc1OCCCc1cn(-c2ccc(C(F)(F)F)cn2)nc1CCC
190 °C | COc1ccc2ccc(N3C(=O)c4ccccc4C3OC(=O)CCCNC(C)=O)nc2n1 (centres undefined)
208 to 210 °C | CCNCC1CCN(c2c(F)cc3c(=O)c(C(=O)O)cn(CC)c3c2F)C1 (centres undefined)
161 to 163 °C | CSc1ccc(/C=C(\NC(=O)c2ccc(OCC(C)C)cc2)C(=O)NCCO)cc1
120 to 124 °C | NCC1Cc2cccc(-c3cccc4ccccc34)c2O1 (centres undefined)

melting point | Compound
115 to 116 °C | COc1ccc(C(NC(=O)c2ccc(F)cc2)c2cccc(Nc3c(OC)c(=O)c3=O)c2)cc1 (centres undefined)
196 to 198 °C | O=C(CCSCCSCCSCCC(=O)Nc1ccc(Nc2ccccc2)cc1)Nc1ccc(Nc2ccccc2)cc1
141 to 143 °C | COc1ccc(-c2cc(F)cc3c2OC(CN)C3)c(OC)c1 (centres undefined)
70 to 73 °C | Cc1noc(C)c1CC(C)(NC(=O)OC1C2CC3CC(C2)CC1C3)C(=O)NCCc1ccccc1 (centres undefined)
> 300 °C | CCNC(=O)c1ccc2cc(-c3csc(N(C)S(=O)(=O)c4ccccc4)n3)c(=O)[nH]c2c1
125 to 127 °C | CCCc1nc2c(N)nc3cccnc3c2n1CCCCN(OC)C(=O)c1ccccc1
38 to 39 °C | COCOc1ccc(C(C)=O)c(O)c1
195 to 197 °C | O=C(Nc1cccc(-c2ncno2)c1)Oc1ccc([N+](=O)[O-])cc1
83 °C | CC(C)(C)OC(=O)NCC(=O)NCC(=O)OCc1ccccc1 (Boc-Gly-Gly-OBn)
114 to 116 °C | Cc1sc(N)c(C(=O)c2ccc(Cl)cc2)c1CN(C)Cc1ccccc1
169 to 171 °C | Cc1cc(OCc2coc(/C=C/c3ccc(Cl)cc3)n2)ccc1CS(=O)CCc1ccnn1C (centres undefined)
98 to 105 °C | CC(C)(COc1ccc(CNC(=O)C2Cc3ccccc3N2S(=O)(=O)c2ccc(-c3ccccc3C(F)(F)F)cc2)cc1)C(=O)O (centres undefined)
146 °C | CC1(C)C=C(n2cncn2)c2cccc(OCc3c(Cl)ccc(S(=O)(=O)N4CCC[C@H]4C(=O)O)c3Cl)c2N1
146 to 148 °C | CC(C)C[C@H](N)C(=O)NCCCCNC(=O)c1ccccc1
213 to 214 °C | CC(C)(C)c1ccc(C=CC(=O)c2ccc(N3CCN(c4ccncc4)CC3)cc2)cc1
222 to 224 °C | CCOc1ccc2[nH]cc(C(=O)NCc3ccccn3)c(=O)c2c1
68 to 70 °C | CCOC(=O)C1=C(C)NC(C)=C(C(=O)OCC)C1c1csc2ccc(Br)cc12
129 to 131 °C | COc1ccc(C(=O)N2CC[C@@H](O)C2=O)cc1O
138 to 139 °C | CCCCc1ccc(-c2nc3ccccc3[nH]2)nc1
43 to 45 °C | CCCCCCCCCCCCCCc1ccc(CCCCCC)c(O)c1
129 to 130 °C | CCCCOC(C(=O)Oc1ccc(C(=O)O)cc1)c1ccc2c(c1)C(C)(C)CCC2(C)C (racemic)
127 to 129 °C | O=S(=O)(NCC1CCN(C[C@H]2COc3ccc(Cl)cc3O2)CC1)c1ccc(F)cc1
112 to 114 °C | Cc1ccc(S(=O)(=O)C2=C(C(=O)OCC(C)C)C(=O)C=C(C(=O)OCC(C)C)C2=O)cc1
138 to 140 °C | CC(C)(C)OC(=O)N1CCc2c(n(CCOc3ccccc3)c3c(Cl)c(Cl)ccc23)CC1

Further lines, the compound ahead of its results:

Compound | melting point
COc1ccc2c(c1)N1CCOCC1C[N+]([O-])=C2c1ccco1 (centres undefined) | 183 to 186 °C
CN1C(=O)C(C)(C)N=C(c2ccccc2Cl)c2cc(N)ccc21 | 85 to 110 °C
CN1CCCC1=Nc1ncnc2c1ncn2C1=CC(=O)CC1 | 200 to 205 °C
CCOn1c(CC)n[nH]c1=O | 93 °C
O=C(O)Cc1cc2c(c(C(=O)O)c1)NCCC2 | 210 to 211 °C
OC12CC3CC(C1)CC(O)(C3)C2 | 169 °C
CC(Oc1cccc2ccoc12)C(N)=NO (centres undefined) | 92 to 94 °C
Oc1ccc(C2CCCN2CCN2CCOCC2)cc1 (centres undefined) | 107 to 108 °C
CC1(C)CC(=O)C(C(=O)NS(=O)(=O)c2ccc(Cl)cc2)C(=O)C1 | 103 to 106 °C
COc1cc(C(O)c2cccs2)cc([N+](=O)[O-])c1OC (centres undefined) | 79 to 81 °C
Nc1cc(N2CCNCC2)c(F)cc1[N+](=O)[O-] | 120 to 121 °C
Clc1cc(Cl)c2nc[nH]c2n1 | 263 °C
c1ccc(-c2nn3c(N4CCCC4)nnc3c3ccccc23)cc1 | 245 to 247 °C
CCOC(=O)c1c(C)nc(N2CCNCC2)nc1N1CCS(=O)(=O)CC1 | 154 to 159 °C
O=C1N(c2cc(Cl)cc(Cl)c2)C(=O)C2(Cc3ccc(Br)cc3)CCCCN12 (centres undefined) | 129 °C
Cc1cc(C)c(C)c(C(=O)Cn2ccnc2)c1C | 176 to 178 °C
CCC(OCC(F)(F)F)c1ccc(Cl)c2nc3n(c12)CCCN3c1ccc(OC)nc1C (centres undefined) | 124 to 126 °C
CN1CCCC1c1ccc(Nc2cc(Br)cn(C)c2=O)nc1 (centres undefined) | 143 to 145 °C
CN(C)c1c(O)ccc2c1CCC1C2CCC2(C)C(=O)CCC12 (centres undefined) | 155 to 156 °C
Nc1cc(F)cc2c(Cl)ccnc12 | 98 to 103 °C
Cn1ncc(N)c1NCCO | 94 to 97 °C
Cc1nnc(N2CCC(N3c4ccccc4N(C)S3(=O)=O)CC2)n1-c1ccc(Cl)cc1 | 210 to 212 °C
CN(Cc1ccc(F)cc1)C1CCN(c2ccc(C#N)cc2)CC1 | 100 to 101 °C
CCn1nc(C)c(-c2ccc3c(c2)NC(=O)CO3)c1-c1ccc(F)cc1 | 161 °C
CC(CCCc1ccc(F)cc1)c1cc(NC(N)=O)c2c(c1)OC(C)(C)c1ccncc1-2 (centres undefined) | 179 to 181 °C

Compound | melting point
Cc1nnc2n1-c1ccc(C(=O)O)cc1C(c1ccccc1Cl)=NC2 | 169 to 173 °C
COc1c([N+](=O)[O-])cc(C)c(C)c1[N+](=O)[O-] | 67.3 to 67.6 °C
N#CNC(=N)NCCN1CCC(C2(c3ccc(F)cc3)OCCO2)CC1 | 161 to 163 °C
O=[N+]([O-])C=Cc1cc(Br)ccc1O | 165 to 167 °C
CC(=O)[C@H]1CC[C@H]2[C@@H]3CCC4=C/C(=N/OC(=O)[C@@H](NC(=O)OC(C)(C)C)C(C)C)CC[C@]4(C)[C@H]3CC[C@]12C | 147 to 149 °C
OCCCc1cnoc1-c1ccc(Br)cc1 | 72 to 73 °C
COC1(Cl)C=C(F)C=C(C=O)C1 (centres undefined) | 59 to 61 °C
CC(=O)NCCC1CCc2ccc3nc(C(F)(F)F)oc3c21 (centres undefined) | 114 to 116 °C
O=C1C(c2ccccc2)=C(c2ccccc2)C(=O)N1Cc1ccccc1F | 113 to 114 °C
O=S(=O)(c1ccc(F)cc1)C(F)(F)C(F)(F)C(F)(F)C(F)(F)S(=O)(=O)c1ccc(F)cc1 | 126 to 127 °C
Cc1cc(C2=NN=C(C#N)Cc3cc4c(cc32)OCO4)ccc1[N+](=O)[O-] | 211 to 214 °C
N#Cc1ccc(C(=O)NC(=S)NC2CCCCC2)cc1 | 136 to 137 °C
COC(=O)c1cscc1Nc1ccc(C(F)(F)F)cc1[N+](=O)[O-] | 175 °C
N#Cc1cnn(-c2ccc(C=O)cc2)n1 | 148 to 150 °C
FC(F)(F)c1nnnn1-c1cccc2ccccc12 | 108 °C
CCCn1nc2c(N)nc3ccccc3c2c1CC(C)(C)C#N | 248 to 250 °C
O=P(O)(O)CCCCCCC(F)(F)C(F)(F)C(F)(F)C(F)(F)F | 107 to 108 °C
O=C1c2cc3nnn(CCC4=CCCCC4)c(=O)c3cc2OC2CCCN12 (centres undefined) | 124 °C
OCCOCc1csc2ccccc12 | 149 to 150 °C
Cn1c(C=[N+](C)[O-])cnc1[N+](=O)[O-] | 208 to 209 °C
CCCC1(O)CCN(C)C(Cc2ccc(OC)cc2)C1(C)C (centres undefined) | 85 to 102 °C
c1ccc(OC(Oc2cccc3ccccc23)Oc2cccc3ccccc23)cc1 | 88.5 to 90 °C
Cc1ccccc1NC(=O)C1(C)CCCCC1 | 138 °C
Nc1ccc2c(c1)SC1=NCCCN12 | 186 °C
O=C1N(Cc2ccccn2)c2ccccc2C12COc1cc3[nH]ncc3cc12 (centres undefined) | 117 to 119 °C
